Experiment in all cases: NCI tumour cell line growth inhibition, 48 h
In test [1] the test system is MOLT-4 leukemia.
Test [2] has as its system UACC-62 melanoma.
Test [3] relates to HOP-92 NSCLC.
Test [4] has as its system NCI-H226 lung.
The test system of test [5] is MALME-3M melanoma.
The subject of test [6] is SK-MEL-5 melanoma.
The subject of test [7] is HS 578T breast.

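Five concentrations, 48 hours, 96-well plates. Here, GI50 denotes the concentration required for 50% inhibition of growth. Definition used: TGI = concentration required for complete inhibition of growth.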

In the case of `NC(CCSCCF)C(=O)O` (configuration not stated), the TGI in test [1], in test [2], in test [3] and in test [4] was above 100 µM in each case.

In the case of `COC(=O)c1ccc(N/C=C(/C#N)c2ccsc2)cc1`, the TGI in test [1] was above 100 µM; in test [2] it was 60.5 µM; in test [4], 39 µM; in test [5], 36.2 µM.

As to `COc1cc2ccnc(-c3n[nH]c4cc(OC)c(OC)cc34)c2cc1OC`, the TGI in test [6], in test [1], in test [2], in test [3], in test [4] and in test [5] was above 100 µM in each case.

For `CCSc1nnc(-c2ccc3ccccc3c2O)n1-c1ccccc1`, the GI50 in test [7] was above 100 µM; in test [1] it was above 100 µM; in test [3], 5 µM; in test [5] it was 69.7 µM. The TGI is above 100 µM in test [7], above 100 µM in test [1], 92.1 µM in test [3] and above 100 µM in test [5].

Regarding `CCCCCCCCCCCc1cc(=O)c2c(O)cccc2o1`, the TGI in test [6], in test [1], in test [2], in test [3], in test [4] and in test [5] was above 100 µM each time.

`CC(=O)Nc1ccc(S(=O)(=O)N/N=C(\C)CN2C(=O)c3ccccc3C2=O)cc1`: the TGI in test [6], in test [1], in test [2], in test [4] and in test [5] was above 100 µM each time.

In the case of `CC(C)CCCC(C)[C@H]1CCC2C3CC=C4C[C@@H](OC(=O)CC(CC(=O)[O-])C(=O)[O-])CC[C@]4(C)C3CC[C@@]21C.N.N.[Pt+4]` (some centres not stated), the GI50 in test [6], in test [2] and in test [3] was above 100 µM throughout. Further, the TGI in test [6], in test [2] and in test [3] was above 100 µM throughout.

`O=C(CC(=O)c1cccc2ccccc12)C(=O)Nc1nccs1`: the TGI in test [6], in test [1], in test [2], in test [3], in test [4] and in test [5] was above 100 µM each time.

Regarding `CC/C(=N/O)C(C)C(=O)CCC(=O)Nc1ccc(Cl)cc1` (configuration not stated), the TGI in test [6], in test [1], in test [2], in test [4] and in test [5] was above 100 µM in each case.

As to `OCC(O)C(OC1OC(CO)C(O)C(O)C1O)c1nn(-c2ccc(Cl)cc2)c2nc3cc(Cl)c(Cl)cc3nc12` (configuration not stated), the TGI in test [1], in test [2] and in test [5] was above 100 µM in each case.

Take `NC(=S)N/N=C1/C(=O)N(c2ccccc2)C(=O)C1C(=O)Nc1ccccc1` (configuration not stated): the TGI in test [6], in test [1], in test [2], in test [3], in test [4] and in test [5] was above 100 µM each time.

For `CC(=O)NC(CCCCN(Cc1ccccc1)C(=O)N(C)N=O)C(=O)NCc1ccccc1` (configuration not stated), the TGI in test [6], in test [1], in test [2], in test [3], in test [4] and in test [5] was above 100 µM each time.

Take `[N-]=[N+]=Nc1nnc(CCCCc2nnc(N=[N+]=[N-])o2)o1`: the TGI in test [6], in test [1], in test [2], in test [3], in test [4] and in test [5] was above 100 µM in each case.

With `COc1ccc(C2C(C(=O)O)=C(CO)Oc3cc4c(cc32)OCO4)c(OC)c1` (configuration not stated), the TGI in test [6], in test [1], in test [2], in test [3] and in test [5] was above 100 µM each time.

With `O=c1c2cc(Br)ccc2n(C2OC(CO)C(O)C(O)C2O)c(=S)n1-c1ccccc1` (configuration not stated), the TGI in test [1], in test [3], in test [4] and in test [5] was above 100 µM throughout.

Consider `Nc1ncnc2c1N=CN(Oc1ccccc1)N2`, for which the TGI was above 100 µM in test [6]; above 100 µM in test [1]; above 100 µM in test [2]; above 100 µM in test [3]; above 100 µM in test [4]; 32.2 µM in test [5].

For the compound `O=C(Cc1ccccc1)N/N=C(/c1nc2ccc([N+](=O)[O-])cc2[nH]c1=O)C(O)c1ccco1` (configuration not stated), the TGI in test [6], in test [1], in test [2], in test [3], in test [4] and in test [5] was above 100 µM throughout.

`C=CCC(O)c1cc(OC)ccc1OC` (configuration not stated): the TGI in test [6], in test [2], in test [3], in test [4] and in test [5] was above 100 µM throughout.

For `CCOC(=O)C1=C(Nc2cccc3ccccc23)OCC1=O`, the TGI in test [6], in test [1], in test [2], in test [3], in test [4] and in test [5] was above 100 µM in each case.

Regarding `CC(C)=CC1(C)/C(=N\O)C(C)(CC(C)C)C(=O)N1O` (configuration not stated), the TGI in test [6], in test [1], in test [2], in test [3], in test [4] and in test [5] was above 100 µM each time.

In the case of `CC1=C(C(=O)NCc2ccccc2)C(c2ccc(N(C)C)cc2)C(C(=O)NCc2ccccc2)=C(C)N1`, the TGI in test [6], in test [1], in test [2], in test [3], in test [4] and in test [5] was above 100 µM each time.

`CN(C)C(=S)/N=C(\N)N(C)C`: the TGI in test [6], in test [1], in test [2], in test [3], in test [4] and in test [5] was above 100 µM each time.

For the compound `CC1=CC[C@@H]2C(=O)C=CC=C[C@H]12.[C-]#[O+].[C-]#[O+].[C-]#[O+].[Fe]`, the GI50 in test [6], in test [1], in test [2], in test [4] and in test [5] was above 100 µM each time. Further, the TGI in test [6], in test [1], in test [2], in test [4] and in test [5] was above 100 µM each time.

For the compound `Cc1cccc(/C=N/N=C(\N)NO)n1`, the TGI is above 100 µM in test [6]; above 100 µM in test [1]; 8.83 µM in test [2]; 98.3 µM in test [3]; above 100 µM in test [5].

For the compound `CC(C)(C)CC(C)(C)c1cc2c(O)c(c1)Cc1cc(C(C)(C)CC(C)(C)C)cc(c1O)Cc1cc(C(C)(C)CC(C)(C)C)cc(c1O)Cc1cc(C(C)(C)CC(C)(C)C)cc(c1O)Cc1cc(C(C)(C)CC(C)(C)C)cc(c1O)Cc1cc(C(C)(C)CC(C)(C)C)cc(c1O)Cc1cc(C(C)(C)CC(C)(C)C)cc(c1O)Cc1cc(C(C)(C)CC(C)(C)C)cc(c1O)C2`, the TGI in test [6], in test [1], in test [2], in test [3] and in test [5] was above 100 µM each time.

In the case of `Cc1c(-c2cc(-c3ccccc3)n[nH]c2=O)c2ccccc2n1C`, the TGI in test [6], in test [1], in test [2], in test [3], in test [4] and in test [5] was above 100 µM in each case.

Consider `CNC(=O)NCCCCC(NC(=O)OCc1ccccc1)C(=O)OCc1ccccc1` (configuration not stated), for which the TGI in test [6] is above 100 µM; in test [1], 40.9 µM; in test [2] it was 47.9 µM; in test [3], 89.2 µM; in test [4] it was above 100 µM; in test [5] it was 47 µM.

With `O=C(/C=C/c1ccco1)N1CCN(Cc2ccccc2)CC1`, the TGI in test [6], in test [1], in test [2] and in test [3] was above 100 µM each time.

Take `C=CC(=O)OCCCS(=O)(=O)[O-].C=CC(=O)OCCCS(=O)(=O)[O-].NC1CCCCC1N.[Pt+4]`: the GI50 in test [6], in test [1], in test [2], in test [4] and in test [5] was above 25 µM each time. In addition, the TGI in test [6], in test [1], in test [2], in test [4] and in test [5] was above 25 µM throughout.

For the origin of these results see PubChem BioAssay (NCI).
